{"source": "patent US8426396B2", "about": "“Treatment for achondroplasia” (Shriners Hospitals for Children, priority 2008, dated 2013)", "system": "TDII FGFR3", "test": "Proteasome inhibition in cells expressing TDII FGFR3 (immunoblot)", "format": "cell-based, mouse", "details": "17-AAG-induced decrease, FIG. 11", "excerpt": "The two FGFR3 bands reflect glycosylation differences.", "note": "Where a SMILES comes first, the peptide text is derived from it. The star is where a group is joined. Cbz = O=C(OCc1ccccc1)*", "data": [{"smiles": "CC(C)C[C@@H](C=O)NC(=O)[C@H](CC(C)C)NC(=O)[C@H](CC(C)C)NC(=O)OCc1ccccc1", "note": "[MG132] (Cbz-Leu-Leu-Leu-aldehyde)", "values": [{"measurement": "TDII FGFR3 degradation", "value": "decreased TDII FGFR3 degradation"}]}]}
